Three compounds from paper PMC4053376, “Characterization of the Xiamenmycin Biosynthesis Gene Cluster in Streptomyces xiamenensis 318” (PLoS ONE, 2014) can be followed below.

In one test the target is T1, XimB (Streptomyces xiamenensis, UniProt U5PZQ3).
T1 construct: full-length 313 aa; N-terminal His tag, pET28a, E. coli BL21(DE3) membrane fraction; twelve predicted transmembrane helices
T1 sequence (U5PZQ3 1-313): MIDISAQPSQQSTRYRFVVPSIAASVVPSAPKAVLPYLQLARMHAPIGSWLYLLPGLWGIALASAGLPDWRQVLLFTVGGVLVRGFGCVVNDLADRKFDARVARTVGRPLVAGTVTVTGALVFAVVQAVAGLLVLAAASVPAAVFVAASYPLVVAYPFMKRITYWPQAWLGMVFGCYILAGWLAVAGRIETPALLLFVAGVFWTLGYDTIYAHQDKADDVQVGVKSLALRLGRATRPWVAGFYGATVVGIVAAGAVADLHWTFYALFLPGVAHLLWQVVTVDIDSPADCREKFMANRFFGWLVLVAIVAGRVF
The test can be described thus: membrane fraction, product […] by UPLC-Q-TOF-MS. Format: biochemical. The following applies: 0.3 mM GPP, 0.5 mM 4HB, 5 mM MgSO4, 50 mM Tris-HCl pH 7.5, 30 °C.

The target of the next test is T2, XimC (Streptomyces xiamenensis, UniProt U5Q2Q4).
T2 construct: full-length 196 aa; N-terminal His6 tag, pET28a, E. coli BL21(DE3), Ni-NTA purified
T2 sequence (U5Q2Q4 entry or part of it): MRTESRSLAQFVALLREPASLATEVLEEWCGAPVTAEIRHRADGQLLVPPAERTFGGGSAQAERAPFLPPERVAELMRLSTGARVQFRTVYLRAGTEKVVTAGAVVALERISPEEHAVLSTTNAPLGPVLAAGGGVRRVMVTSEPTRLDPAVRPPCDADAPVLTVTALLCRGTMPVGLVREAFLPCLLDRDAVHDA
The test can be described thus: product 4HB by GC-MS. The format is biochemical. The following applies: 50 mM Tris-HCl pH 7.5, 30 °C, 30 min.

With `O=C(O)c1ccc(O)cc1` [4-hydroxybenzoic acid], the “membrane fraction, product 2 by UPLC-Q-TOF-MS” value on XimB is “membrane fraction containing XimB was incubated with 4HB and GPP”.

Take `C=C(O[C@@H]1C=C(C(=O)O)C=C[C@H]1O)C(=O)O` [chorismate]: the “product 4HB by GC-MS” value on XimC was “incubated with chorismate, the formation of 4HB was observed and confirmed by GC-MS”.

Turning to `CC(C)=CCC/C(C)=C/COP(=O)(O)OP(=O)(O)O` [geranyl diphosphate], the “membrane fraction, product 2 by UPLC-Q-TOF-MS” value at XimB is “membrane fraction containing XimB was incubated with 4HB and GPP”.
